In patent US20250195457A1, “PHARMACEUTICAL COMPOSITION FOR TREATMENT OF PARKINSON'S DISEASE” (Eisai R&D Management Co., Ltd., priority 2022, published 2025):

Legend:
[1] = test system: levodopa-induced dyskinesia model cynomolgus monkeys; assay: Test Example 3: dyskinesia score in levodopa-induced dyskinesia model monkeys; format: in vivo; set-up: key to Dyskinesia score: dyskinesia score 0 = normal home cage activity to 4 = severe stereotypy
Procedure: A levodopa/carbidopa mixture containing 80 mg/kg of levodopa and 20 mg/kg of carbidopa and having a solution volume of 5 mL/kg was orally administered to Parkinson's disease model cynomolgus monkeys at the age of 6 to 7 prepared in the same way as in Test Example 1 for 8 consecutive days to provide levodopa-induced dyskinesia model cynomolgus monkeys. The induction of dyskinesia was determined based on the “dyskinesia score” in accordance with the following behavior evaluation items in the following test on activity in home cages, and animals having dyskinesia scores of 1 or more on day 7 of the repeated administration of the levodopa/carbidopa mixture were used.
Home cage activities corresponding to dyskinesia scores • 0: Normal home cage activity (exploring or inactivity, able to drink water, plays with mirror or caging, climbing of the walls). • 1: Some interference with normal activity, however able to climb walls. • 2: Occasional exploration of cage, some stereotypy • 3: Little normal movement, lack of climbing of walls, clear stereotypy • 4: Lack of normal home cage activity, lack of normal exploratory behavior and movement, severe stereotypy
Seven levodopa-induced dyskinesia model cynomolgus monkeys were randomized into 4 groups of approximately equal mean and variance in terms of body weight. On subsequent cycles 2, 3, and 4, the animals were crossed over to receive the other treatment. A wash out period of one week or more was set between cycles.
One of the seven animals was excluded from the evaluation of cycles 3 and 4 because it was unable to get up due to dyskinesia on day 8 in cycle 3 of the repeated administration of the levodopa/carbidopa mixture.
By the end of the study, each animal had received all the four treatments. Each substance was administered 1 hr. after the administration on day 8 of the repeated administration of the levodopa/carbidopa mixture. As a vehicle, an aqueous solution containing 0.43% (w/v) methyl cellulose 400, 10% (v/v) dimethyl sulfoxide (DMSO), and 4.5% (w/v) Cremophor (R) were used.
Before the administration, and 1 hr., 4 hrs., and 24 hrs. after the administration of the test substances, the dyskinesia scores of the animals were evaluated. The behavior evaluation was performed in a blinded manner. The dyskinesia scores of the groups were compared using Steel's test. The p-values of less than 0.05 were considered to be statistically significant.

[2] = test system: various animal models; conditions: cited from earlier work

`NS(=O)(=O)N[C@H]1c2c(F)cc(F)cc2CC1(F)F` [Compound (I), N-[(1S)-2,2,5,7-tetrafluoro-2,3-dihydro-1H-inden-1-yl]sulfamide] gave a Dyskinesia score ([1]; Compound (I) 25 mg/kg (G2), 1 hr. after administration) of 2.0 ± 0.0, a Dyskinesia score ([1]; Compound (I) 25 mg/kg (G2), 4 hrs. after administration) of 1.6 ± 0.2 and a Dyskinesia score ([1]; Compound (I) 25 mg/kg (G2), 24 hrs. after administration) of 2.0 ± 0.0. For the same compound, the Dyskinesia score ([1]; Compound (I) 25 mg/kg (G2), Pre (before administration)) was 1.7 ± 0.2, the Dyskinesia score ([1]; Compound (I) 50 mg/kg (G3), 1 hr. after administration) was 1.8 ± 0.2 and the Dyskinesia score ([1]; Compound (I) 50 mg/kg (G3), 4 hrs. after administration) was 1.3 ± 0.2. For the same compound, the “Mean value of the dyskinesia scores compared with other groups” value ([1]; Compound (I) 50 mg/kg (G3), 4 hrs. after the administration, versus vehicle (G1) and istradefylline (G4)) was “lower as compared with the vehicle-treated group (G1) and the istradefylline-treated group (G4)”, the Dyskinesia score ([1]; Compound (I) 50 mg/kg (G3), 24 hrs. after administration) was 1.8 ± 0.2 and the Dyskinesia score ([1]; Compound (I) 50 mg/kg (G3), Pre (before administration)) was 1.7 ± 0.2. For the same compound, the analgesic effect [2] was “exhibit an analgesic effect”.
